Measured values published in ChEMBL document CHEMBL3525964 (Drug Metab Dispos, 2012).

Assays:
[1] = Drug metabolism in human urine assessed as isopropyl(2S)-7-cyano-3a,8b-dihydroxy-4-(pyridin-2-ylmethyl)-1,2,3,3a,4,8b-hexahydrocyclopenta[b]indol-2-ylcarbamate formation at 15 mg, po administered as single dose by LC-MS/MS method; type: ADME, organism-based; conditions: in vivo
Homo sapiens [2] = test: Tlast in human assessed as total radioactivity at 15 mg, po administered as single dose by liquid scintillation counting method; type: ADME, organism-based; conditions: in vivo
[3] = Drug metabolism in human urine assessed as LY2452473 formation at 15 mg, po administered as single dose by LC-MS/MS method; type: ADME, organism-based; conditions: in vivo
[4] = Drug metabolism in human urine assessed as [(1R)-2-hydroxy-1-methyl-ethyl]N-[(2S)-7-cyano-4-(2-pyridylmethyl)-2,3-dihydro-1H-cyclopenta[b]indol-2-yl]carbamate formation at 15 mg, po administered as single dose by LC-MS/MS method; type: ADME, organism-based; conditions: in vivo
[5] = Drug metabolism in human urine assessed as (2S)-2-amino-4-(2-pyridylmethyl)-2,3-dihydro-1H-cyclopenta[b]indole-7-carbonitrile formation at 15 mg, po administered as single dose by LC-MS/MS method; type: ADME, organism-based; conditions: in vivo
Plasma [6] = test: Drug metabolism in human plasma assessed as [(1R)-2-hydroxy-1-methyl-ethyl]N-[(2S)-7-cyano-4-(2-pyridylmethyl)-2,3-dihydro-1H-cyclopenta[b]indol-2-yl]carbamate formation at 15 mg, po administered as single dose by LC-MS/MS method; type: ADME, organism-based; conditions: in vivo
Plasma [7] = test: Drug metabolism in human plasma assessed as LY2452473 formation at 15 mg, po administered as single dose by LC-MS/MS method; type: ADME, organism-based; conditions: in vivo
Plasma [8] = test: Drug level in human plasma at 15 mg, po after 24 hrs administered as single dose by HPLC analysis; type: ADME, organism-based; conditions: in vivo
[9] = Drug recovery in human urine at 15 mg, po administered as single dose after 0 to 312 hrs by liquid scintillation counting method; type: ADME, organism-based; conditions: in vivo
Plasma [10] = test: Drug metabolism in human plasma assessed as (2S)-2-amino-4-(2-pyridylmethyl)-2,3-dihydro-1H-cyclopenta[b]indole-7-carbonitrile formation at 15 mg, po administered as single dose by LC-MS/MS method; type: ADME, organism-based; conditions: in vivo
Plasma [11] = test: Drug level in human plasma at 15 mg, po after 48 hrs administered as single dose by HPLC analysis; type: ADME, organism-based; conditions: in vivo, pooled result: one value given for 5 cell lines, strains, targets or settings
Plasma [12] = test: Drug metabolism in human plasma assessed as isopropyl(2S)-7-cyano-3a,8b-dihydroxy-4-(pyridin-2-ylmethyl)-1,2,3,3a,4,8b-hexahydrocyclopenta[b]indol-2-ylcarbamate formation at 15 mg, po administered as single dose by LC-MS/MS method; type: ADME, organism-based; conditions: in vivo
Homo sapiens [13] = test: Tmax in human assessed as total radioactivity at 15 mg, po administered as single dose by liquid scintillation counting method; type: ADME, organism-based; conditions: in vivo
Plasma [14] = test: Drug metabolism in human plasma assessed as isopropyl N-[(2S,3S)-7-cyano-3-hydroxy-4-(2-pyridylmethyl)-2,3-dihydro-1H-cyclopenta[b]indol-2-yl]carbamate formation at 15 mg, po administered as single dose by LC-MS/MS method; type: ADME, organism-based; conditions: in vivo
[15] = Drug recovery in human feces at 15 mg, po administered as single dose after 0 to 312 hrs by liquid scintillation counting method; type: ADME, organism-based; conditions: in vivo
[16] = Drug metabolism in human feces assessed as LY2452473 formation at 15 mg, po administered as single dose by LC-MS/MS method; type: ADME, organism-based; conditions: in vivo
[17] = Drug metabolism in human urine assessed as isopropyl N-[(2S,3S)-7-cyano-3-hydroxy-4-(2-pyridylmethyl)-2,3-dihydro-1H-cyclopenta[b]indol-2-yl]carbamate formation at 15 mg, po administered as single dose by LC-MS/MS method; type: ADME, organism-based; conditions: in vivo
[18] = Drug metabolism in human feces assessed as [(1R)-2-hydroxy-1-methyl-ethyl]N-[(2S)-7-cyano-4-(2-pyridylmethyl)-2,3-dihydro-1H-cyclopenta[b]indol-2-yl]carbamate formation at 15 mg, po administered as single dose by LC-MS/MS method; type: ADME, organism-based; conditions: in vivo
[19] = Drug metabolism in human feces assessed as isopropyl N-[(2S,3S)-7-cyano-3-hydroxy-4-(2-pyridylmethyl)-2,3-dihydro-1H-cyclopenta[b]indol-2-yl]carbamate formation at 15 mg, po administered as single dose by LC-MS/MS method; type: ADME, organism-based; conditions: in vivo
Homo sapiens [20] = test: AUC (0 to infinity) in human assessed as total radioactivity at 15 mg, po administered as single dose by liquid scintillation counting method; type: ADME, organism-based, Plasma; parameters: dose 15 mg, route oral, time infinity; conditions: in vivo
[21] = Drug metabolism in human feces assessed as isopropyl(2S)-7-cyano-3a,8b-dihydroxy-4-(pyridin-2-ylmethyl)-1,2,3,3a,4,8b-hexahydrocyclopenta[b]indol-2-ylcarbamate formation at 15 mg, po administered as single dose by LC-MS/MS method; type: ADME, organism-based; conditions: in vivo
Plasma [22] = test: Drug metabolism in human plasma assessed as N-[(2S)-7-cyano-4-(2-pyridylmethyl)-2,3-dihydro-1H-cyclopenta[b]indol-2-yl]acetamide formation at 15 mg, po administered as single dose by LC-MS/MS method; type: ADME, organism-based; conditions: in vivo
[23] = Drug metabolism in human feces assessed as N-[(2S)-7-cyano-4-(2-pyridylmethyl)-2,3-dihydro-1H-cyclopenta[b]indol-2-yl]acetamide formation at 15 mg, po administered as single dose by LC-MS/MS method; type: ADME, organism-based; conditions: in vivo
[24] = Drug metabolism in human urine assessed as N-[(2S)-7-cyano-4-(2-pyridylmethyl)-2,3-dihydro-1H-cyclopenta[b]indol-2-yl]acetamide formation at 15 mg, po administered as single dose by LC-MS/MS method; type: ADME, organism-based; conditions: in vivo
Homo sapiens [25] = test: AUC (0 to time) in human assessed as total radioactivity at 15 mg, po administered as single dose by liquid scintillation counting method; type: ADME, organism-based, Plasma; conditions: in vivo
[26] = Drug metabolism in human feces assessed as (2S)-2-amino-4-(2-pyridylmethyl)-2,3-dihydro-1H-cyclopenta[b]indole-7-carbonitrile formation at 15 mg, po administered as single dose by LC-MS/MS method; type: ADME, organism-based; conditions: in vivo
Homo sapiens [27] = test: Elimination half life in human assessed as total radioactivity at 15 mg, po administered as single dose by liquid scintillation counting method; type: ADME, organism-based; conditions: in vivo
Homo sapiens [28] = test: Drug recovery in human at 15 mg, po administered as single dose after 0 to 312 hrs by liquid scintillation counting method; type: ADME, organism-based; conditions: in vivo
[29] = Drug level in feces of human treated with [14C}LY2452473 at 15 mg, po administered as single dose by LC-MS/MS method; type: ADME, organism-based; conditions: in vivo
[30] = Drug excretion in urine of human treated with [14C}LY2452473 at 15 mg, po administered as single dose by HPLC analysis; type: ADME, organism-based; conditions: read-out: Drug excretion
[31] = Total drug excretion in human treated with [14C}LY2452473 at 15 mg, po administered as single dose by HPLC analysis; type: ADME, organism-based; conditions: in vivo, read-out: Drug excretion
Plasma [32] = test: Drug level in plasma of human treated with [14C}LY2452473 at 15 mg, po administered as single dose by LC-MS/MS method; type: ADME, organism-based; conditions: in vivo
[33] = Drug level in urine of human treated with [14C}LY2452473 at 15 mg, po administered as single dose by LC-MS/MS method; type: ADME, organism-based; conditions: in vivo
Plasma [34] = test: Drug level in human plasma treated with [14C}LY2452473 at 15 mg, po after 4 hrs administered as single dose by HPLC analysis relative to total radioactivity; type: ADME, organism-based; conditions: in vivo
Plasma [35] = test: Drug level in human plasma treated with [14C}LY2452473 at 15 mg, po after 4 hrs administered as single dose by HPLC analysis; type: ADME, organism-based; conditions: in vivo
Plasma [36] = test: Drug level in human plasma treated with [14C}LY2452473 at 15 mg, po after 1 hr administered as single dose by HPLC analysis; type: ADME, organism-based; conditions: in vivo
Plasma [37] = test: Drug level in human plasma treated with [14C}LY2452473 at 15 mg, po after 2 hrs administered as single dose by HPLC analysis; type: ADME, organism-based; conditions: in vivo
Plasma [38] = test: Drug level in human plasma treated with [14C}LY2452473 at 15 mg, po after 48 hrs administered as single dose by HPLC analysis; type: ADME, organism-based; conditions: in vivo
Plasma [39] = test: Drug level in human plasma treated with [14C}LY2452473 at 15 mg, po after 8 hrs administered as single dose by HPLC analysis; type: ADME, organism-based; conditions: in vivo
Plasma [40] = test: Drug level in human plasma treated with [14C}LY2452473 at 15 mg, po after 24 hrs administered as single dose by HPLC analysis; type: ADME, organism-based; conditions: in vivo

## CC(C)OC(=O)N[C@H]1Cc2c(n(Cc3ccccn3)c3ccc([14C]#N)cc23)C1
[1]
  Drug metabolism: metabolite_detected
Homo sapiens [2]
  Tlast: 204 h
[3]
  Drug metabolism: metabolite_detected
[4]
  Drug metabolism: metabolite_detected
[5]
  Drug metabolism: metabolite_detected
Plasma [6]
  Drug metabolism: metabolite_detected
Plasma [7]
  Drug metabolism: metabolite_detected
Plasma [8]
  Drug uptake: 94.41%
[9]
  Drug recovery: 47.9%
Plasma [10]
  Drug metabolism: metabolite_detected
Plasma [11]
  Drug uptake: 96.4%
Plasma [12]
  Drug metabolism: metabolite_detected
Homo sapiens [13]
  Tmax: 3 h
Plasma [14]
  Drug metabolism: metabolite_detected
[15]
  Drug recovery: 46.6%
[16]
  Drug metabolism: metabolite_detected
[17]
  Drug metabolism: metabolite_detected
[18]
  Drug metabolism: metabolite_detected
[19]
  Drug metabolism: metabolite_detected
Homo sapiens [20]
  AUC: 7750 ng·h/mL
[21]
  Drug metabolism: metabolite_detected
Plasma [22]
  Drug metabolism: metabolite_detected
[23]
  Drug metabolism: metabolite_detected
[24]
  Drug metabolism: metabolite_detected
Homo sapiens [25]
  AUCt: 7210 ng·h/mL
[26]
  Drug metabolism: metabolite_detected
Homo sapiens [27]
  beta t1/2: 51 h
Homo sapiens [28]
  Drug recovery: 94.5%

## N#Cc1ccc2c(c1)c1c(n2Cc2ccccn2)C[C@@H](N)C1
[29]
  Drug metabolism: metabolite_detected
[30]
  dose excreted: 3.39%
[31]
  dose excreted: 3.39%
Plasma [32]
  Drug metabolism: metabolite_detected
[33]
  Drug metabolism: metabolite_detected

## C[C@H](CO)OC(=O)N[C@H]1Cc2c(n(Cc3ccccn3)c3ccc(C#N)cc23)C1
[29]
  Drug metabolism: metabolite_detected
Plasma [34]
  Drug uptake: 2.3%
Plasma [35]
  Drug uptake: 2.2%
Plasma [36]
  Drug uptake: 0%
Plasma [37]
  Drug uptake: 0.89%
Plasma [38]
  Drug uptake: 0%
Plasma [39]
  Drug uptake: 6.94%
Plasma [32]
  Drug metabolism: metabolite_detected
[33]
  Drug metabolism: metabolite_detected
Plasma [40]
  Drug uptake: 0%

## CC(=O)N[C@H]1Cc2c(n(Cc3ccccn3)c3ccc(C#N)cc23)C1
[29]
  Drug metabolism: metabolite_detected
Plasma [34]
  Drug uptake: 20.6%
Plasma [35]
  Drug uptake: 1.74%
Plasma [36]
  Drug uptake: 0%
Plasma [37]
  Drug uptake: 0%
Plasma [38]
  Drug uptake: 38.68%
Plasma [39]
  Drug uptake: 10.48%
Plasma [32]
  Drug metabolism: metabolite_detected
[33]
  Drug metabolism: metabolite_detected
Plasma [40]
  Drug uptake: 28.48%

## CC(C)OC(=O)N[C@H]1CC2(O)c3cc(C#N)ccc3N(Cc3ccccn3)C2(O)C1 (some centres not stated)
[29]
  Drug metabolism: metabolite_detected
Plasma [32]
  Drug metabolism: metabolite_detected
[33]
  Drug metabolism: metabolite_detected

## C[C@@H](CO)OC(=O)N[C@H]1Cc2c(n(Cc3ccccn3)c3ccc(C#N)cc23)C1
Plasma [35]
  Drug uptake: 0.97%
Plasma [36]
  Drug uptake: 0%
Plasma [37]
  Drug uptake: 0%
Plasma [38]
  Drug uptake: 0%
Plasma [39]
  Drug uptake: 0%
Plasma [40]
  Drug uptake: 0%

## CC(C)OC(=O)N[C@H]1Cc2c(n(Cc3ccccn3)c3ccc(C#N)cc23)[C@H]1O
[29]
  Drug metabolism: metabolite_detected
Plasma [34]
  Drug uptake: 34.7%
Plasma [35]
  Drug uptake: 24.24%
Plasma [36]
  Drug uptake: 21.9%
Plasma [37]
  Drug uptake: 22.58%
Plasma [38]
  Drug uptake: 30.05%
Plasma [39]
  Drug uptake: 36.62%
Plasma [32]
  Drug metabolism: metabolite_detected
[33]
  Drug metabolism: metabolite_detected
Plasma [40]
  Drug uptake: 37.11%
